Where two headings read alike, the source gives them in different places.
Tests used:
[1] = tested on: Trypanosoma brucei brucei bloodstream forms (strain 427); assay: In vitro antitrypanosomal activity on Tbb BSF; assay type: cell-based; conditions: for IC50: Trypanosoma brucei, Tbb bloodstream forms strain 427, Table 3
Experimental: Antiparasitic activities were evaluated in vitro on Trypanosoma brucei brucei bloodstream forms (strain 427) (Tbb BSF). Tbb BSF were cultured in vitro at 37° C. with 5% CO2 in HMI9 medium containing 10% heat-inactivated fetal bovine serum, […] ([…]) and L-cysteine ([…]).
(§1) In vitro tests were performed as previously described by Hoet S. et al. (Planta Med., 2004, 70, 407-413, doi:10.1055/s-2004-818967). Suramine (a commercial anti-trypanosomal drug) and camptothecin were used as positive controls. Stock solutions of compounds to be tested were prepared at a concentration of 10 mg/mL in DMSO. The solutions were further diluted in medium (described in 1.1) to give 0.1 mg/mL stock solutions. Extracts and compounds were tested in eight serial three-fold dilutions (final concentration range: 50-0.02 mg/L) in 96-well microliter plates. All tests were performed at least in duplicate.

[2] = tested on: Human normal fibroblast cell line (WI-38); assay: cells; assay type: cell-based; conditions: cytotoxicity, WI-38 human fibroblasts, Table 3
Experimental: The cytotoxicity of tested compounds was evaluated in parallel on a Human normal fibroblast cell line (WI-38) cultivated in a humidified atmosphere with 5% CO2 at 37° C. Human normal fibroblast cell line (WI-38) was cultivated in DMEM medium (Life Technologies) containing 4 mM L-glutamine, 1 mM sodium pyruvate supplemented with 10% fetal bovine serum (Sigma) and penicillin-streptomycin (100 UI/mL).
as §1, with “Suramine” for “In vitro tests were performed as previously described by Hoet S. et al. (Planta Med., 2004, 70, 407-413, doi:10.1055/s-2004-818967). Suramine”

[3] = In vivo acute toxicity test (highest tolerated dose); set-up: species or system NMRI mice
Source text: (§2) NMRI mice (6-8 weeks of age) obtained from Envigo Laboratories (The Netherlands) were used. All in vivo experiments performed were approved by the Ethical Committee for animals use at the Health Sciences Sector of the Catholic University of Louvain (2017/UCL/MD/017).
The assessment of the highest tolerated dose was based on a DNDi protocol by Loset J.-R. et al. (V. Drug Screening for Kinetoplastids Diseases. A Training Manual for Screening in Neglected Diseases-DNDi, 2009) and adapted by Beaufay C. et al. (Malar J., 2017, 16, doi:10.1186/s12936-017-2054-y). Briefly, 3-O-cis/trans-p-coumaroyltormentic acid isolated from fractions F-F9 obtained from a callus of Malus domestica Cox cultivar of example 1 above was given intraperitoneally every 2 hours to 2 mice using increasing doses: 10-15-25-50 mg/kg from stock solutions of 10 mg/mL. Mice were controlled for any health problem symptoms or behavioral changes and monitored for weight and hematocrit after each injection and every day during 48 h after administration. Main organs (heart, liver, spleen, lung and kidney) of treated mice were observed and weighed wet during autopsy. Control group received the vehicle, distilled water with 10% of tween 80-ethanol (7:3). The total injected dose was finally recorded and will ensure the non-toxicity of in vivo anti-trypanosomal test.

[4] = tested on: Trypanosoma brucei brucei; assay: In vivo anti-trypanosomal activity in infected mice; set-up: species or system NMRI mice
Source text: as §2
Mice were randomly divided into 6 mice per group for 3-O-cis/trans-p-coumaroyltormentic acid (mixture of cis and trans) and ursolic acid, 4 for positive control (Suramine) and 7 for the negative control, and were infested intraperitoneally with 10^4 Trypanosoma brucei brucei. All compounds were solubilized in the vehicle (water-tween 80-ethanol) and administered intraperitoneally. 3-O-cis/trans-p-coumaroyltormentic acid or ursolic acid (UA) were administered at 50 mg/kg at day 3 after infection with the parasite and then every day until day 7 post-infection. Suramine (0.5 mg/kg) was administered while vehicle was used as a negative control. From day 3 post infection, a drop of blood collected each day from mouse-tail was used to count parasitemia.

[5] = tested on: Trypanosoma brucei brucei; conditions: review Isah et al. 2016; cited from earlier work
Trypanosoma cruzi = conditions: review Isah et al. 2016; cited from earlier work
MCR-5 cells = conditions: cited from earlier work

C[C@H]1[C@H](C)CC[C@]2(C(=O)O)CC[C@]3(C)C(=CC[C@@H]4[C@@]5(C)CC[C@H](O)C(C)(C)[C@@H]5CC[C@]43C)[C@H]12 [Ursolic acid]
IC50 ([1]; read-out: Tbb (IC50 μM)): 2.38 ± 0.24 µM | IC50 ([1]; read-out: Tbb (IC50 μg/mL)): 1.08 ± 0.11 µg/mL | SI (Selectivity Index) ([1]; cytotoxicity in WI38 compared to Tbb): 4.8 | IC50 ([2]; read-out: WI38 (IC50 μM)): 11.1 ± 0.22 µM | IC50 ([2]; read-out: WI38 (IC50 μg/mL)): 5.08 ± 0.1 µg/mL | total cumulative highest tolerated dose ([3]; NMRI, mouse, in vivo, ip, 48 h): 100 mg/kg | acute toxicity ([3]; mice, intraperitoneally every 2 hours, 10-15-25-50 mg/kg, monitored 48 h): no acute toxic symptom | survival of infected mice in comparison to the untreated group ([4]; 50 mg/kg/d i.p. day 3-7 post-infection, followed to day 19): no significant difference | parasitemia ([4]; day 4 post-infection, 50 mg/kg/day intraperitoneally, 10^4 Tbb/mouse): did not show any effect | survival increase ([4]; day 12 post-infection, 50 mg/kg i.p. day 3-7): 16.7%

tingenin
IC50 against Trypanosoma brucei brucei [5]: < 0.25 µg/mL | IC50 against Trypanosoma cruzi (Trypanosoma cruzi): < 0.25 µg/mL | cytotoxicity IC50 on MCR-5 cells (MCR-5 cells): 0.45 µg/mL

— patent US12605351B2, “Method for producing a composition comprising a 3-O-p-coumaroyl ester of tormentic acid from a plant cell culture, applications thereof as antiparasitic agent for the treatment of trypanosomiasis” (LUXEMBOURG INSTITUTE OF SCIENCE AND TECHNOLOGY, priority 2019, dated 2026)
